Experimental findings from ChEMBL document CHEMBL4842358, “Design, synthesis and biological evaluation of sphingosine-1-phosphate receptor 2 antagonists as potent 5-FU-resistance reversal agents for the treatment of colorectal cancer” (Eur J Med Chem, 2021) are described below.

Activity calls are given as the source filed them. No cut-off for these calls is given here.

T1 sequence (O95136 whole entry): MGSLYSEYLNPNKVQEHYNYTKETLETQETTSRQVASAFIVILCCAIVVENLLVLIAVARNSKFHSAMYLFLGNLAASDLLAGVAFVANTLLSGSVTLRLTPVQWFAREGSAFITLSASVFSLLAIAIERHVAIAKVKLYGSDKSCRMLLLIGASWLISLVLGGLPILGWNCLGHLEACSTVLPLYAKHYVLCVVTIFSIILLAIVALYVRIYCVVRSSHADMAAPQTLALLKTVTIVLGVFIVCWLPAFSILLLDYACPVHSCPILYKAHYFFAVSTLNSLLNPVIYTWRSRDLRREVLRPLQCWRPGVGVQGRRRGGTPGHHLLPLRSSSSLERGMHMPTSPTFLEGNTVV

One assay addresses T1, Sphingosine 1-phosphate receptor 2 (Homo sapiens, UniProt O95136). Put plainly: Antagonist activity at S1PR2 in human SW620/5-FU cells assessed as downregulation of DPD expression by western blot analysis. As to conditions: filed as antagonist. The format is functional, cell-based. (In general: Immunoblotting shows a protein as a band on a membrane.)
On to `COc1cc(NC(=O)Nc2cc(Cl)nc(Cl)c2)cc(Cl)n1`, for which the inhibition result was “Active”.

On to `O=C(Nc1cc(Cl)nc(Cl)c1)Nc1cc(Cl)nc(OC2CCCC2)c1`, for which the inhibition entry was “Active”.

`O=C(Nc1cc(Cl)nc(Cl)c1)Nc1cc2ccccn2n1`: the inhibition entry is “Active”.

With `CCOc1cc(NC(=O)Nc2cc(Cl)nc(Cl)c2)cc(Cl)n1`, the inhibition entry is “Active”.

As to `CC(C)Oc1cc(NC(=O)Nc2cc(Cl)nc(Cl)c2)cc(Cl)n1`, the inhibition result was “Active”.

On to `O=C(Nc1cc(Cl)cc(Cl)c1)Nc1cc(Cl)nc(Cl)c1`, for which the inhibition entry is “Active”.

On to `COc1ccc(-c2ccc3cc(NC(=O)Nc4cc(Cl)nc(Cl)c4)nn3c2)cc1`, for which the inhibition result was “Active”.

Take `O=C(Nc1cc(Cl)nc(Cl)c1)Nc1cc2ccc(Br)cn2n1`: the inhibition entry was “Active”.

Consider `COc1c(Cl)cc(NC(=O)Nc2cc(Cl)nc(Cl)c2)cc1Cl`, for which the inhibition result was “Active”.

In the case of `O=C(Nc1cc(Cl)nc(Cl)c1)Nc1cc2ccc(-c3ccccc3)cn2n1`, the inhibition result is “Active”.

Test system in a further assay: not listed separately
Put plainly: Reversal of 5-FU resistance against human SW620/5-FU cells assessed as inhibition of cell proliferation measured after 72 hrs in presence of 5-FU by MTT assay.
Settings: not given
The format is functional, cell-based. Background: Tetrazolium assays rely on reduction of a dye to a coloured formazan, in cell work by metabolically active cells.
With `COc1cc(NC(=O)Nc2cc(Cl)nc(Cl)c2)cc(Cl)n1`, the half-maximal effective concentration (EC50) is 14.2 µM.

For the compound `O=C(Nc1cc(Cl)nc(Cl)c1)Nc1cc(Cl)nc(OC2CCCC2)c1`, the EC50 was 6.15 µM.

Regarding `O=C(Nc1cc(Cl)nc(Cl)c1)Nc1cc2ccccn2n1`, the EC50 is 2.49 µM.

For `CCOc1cc(NC(=O)Nc2cc(Cl)nc(Cl)c2)cc(Cl)n1`, the EC50 was 8.15 µM.

For `CC(C)Oc1cc(NC(=O)Nc2cc(Cl)nc(Cl)c2)cc(Cl)n1`, the EC50 stood at 5.17 µM.

Consider `O=C(Nc1cc(Cl)cc(Cl)c1)Nc1cc(Cl)nc(Cl)c1`, for which the EC50 came to 12.2 µM.

As to `COc1ccc(-c2ccc3cc(NC(=O)Nc4cc(Cl)nc(Cl)c4)nn3c2)cc1`, the EC50 is 9.62 µM.

As for `O=C(Nc1cc(Cl)nc(Cl)c1)Nc1cc2ccc(Br)cn2n1`, the EC50 came out at 11.7 µM.

`COc1c(Cl)cc(NC(=O)Nc2cc(Cl)nc(Cl)c2)cc1Cl`: the EC50 turned out to be 8.25 µM.

As for `O=C(Nc1cc(Cl)nc(Cl)c1)Nc1cc2ccc(-c3ccccc3)cn2n1`, the EC50 came to 9.25 µM.

For a further assay, the system named is NCM460. Description: Cytotoxicity against human NCM460 cells assessed as cell viability measured after 72 hrs in presence of 5-FU by MTT assay. The format is cell-based. The following applies: NCM460, 72 h.
For `COc1cc(NC(=O)Nc2cc(Cl)nc(Cl)c2)cc(Cl)n1`, the EC50 amounted to 33.2 µM.

With `O=C(Nc1cc(Cl)nc(Cl)c1)Nc1cc(Cl)nc(OC2CCCC2)c1`, the EC50 was 21.4 µM.

As to `O=C(Nc1cc(Cl)nc(Cl)c1)Nc1cc2ccccn2n1`, the EC50 came to 10.2 µM.

On to `CCOc1cc(NC(=O)Nc2cc(Cl)nc(Cl)c2)cc(Cl)n1`, for which the EC50 worked out at 25.3 µM.

Turning to `CC(C)Oc1cc(NC(=O)Nc2cc(Cl)nc(Cl)c2)cc(Cl)n1`, the EC50 was 21.1 µM.

On to `O=C(Nc1cc(Cl)cc(Cl)c1)Nc1cc(Cl)nc(Cl)c1`, for which the EC50 was 55.4 µM.

`COc1ccc(-c2ccc3cc(NC(=O)Nc4cc(Cl)nc(Cl)c4)nn3c2)cc1`: the EC50 turned out to be 8.35 µM.

As for `O=C(Nc1cc(Cl)nc(Cl)c1)Nc1cc2ccc(Br)cn2n1`, the EC50 stood at 8.94 µM.

Take `COc1c(Cl)cc(NC(=O)Nc2cc(Cl)nc(Cl)c2)cc1Cl`: the EC50 was determined as 27.3 µM.

On to `O=C(Nc1cc(Cl)nc(Cl)c1)Nc1cc2ccc(-c3ccccc3)cn2n1`, for which the EC50 stood at 8.05 µM.

The test system of another assay is HCT-116. Put plainly: Reversal of 5-FU resistance against human HCT-116 cells overexpressing DPD assessed as inhibition of cell proliferation measured after 72 hrs in presence of 5-FU by MTT assay. The following applies: HCT-116, 72 h. The format is functional, cell-based.
Consider `COc1cc(NC(=O)Nc2cc(Cl)nc(Cl)c2)cc(Cl)n1`, for which the EC50 stood at 11.2 µM.

With `O=C(Nc1cc(Cl)nc(Cl)c1)Nc1cc(Cl)nc(OC2CCCC2)c1`, the EC50 was 5.12 µM.

Take `O=C(Nc1cc(Cl)nc(Cl)c1)Nc1cc2ccccn2n1`: the EC50 came out at 5.13 µM.

As to `CCOc1cc(NC(=O)Nc2cc(Cl)nc(Cl)c2)cc(Cl)n1`, the EC50 was determined as 6.13 µM.

Consider `CC(C)Oc1cc(NC(=O)Nc2cc(Cl)nc(Cl)c2)cc(Cl)n1`, for which the EC50 stood at 5.23 µM.

As for `O=C(Nc1cc(Cl)cc(Cl)c1)Nc1cc(Cl)nc(Cl)c1`, the EC50 was 11.4 µM.

`COc1ccc(-c2ccc3cc(NC(=O)Nc4cc(Cl)nc(Cl)c4)nn3c2)cc1`: the EC50 stood at 5.35 µM.

As to `O=C(Nc1cc(Cl)nc(Cl)c1)Nc1cc2ccc(Br)cn2n1`, the 50% effective concentration (EC50) worked out at 5.26 µM.

Consider `COc1c(Cl)cc(NC(=O)Nc2cc(Cl)nc(Cl)c2)cc1Cl`, for which the EC50 is 41.5 µM.

`O=C(Nc1cc(Cl)nc(Cl)c1)Nc1cc2ccc(-c3ccccc3)cn2n1`: the EC50 is 5.13 µM.

In another assay the target is T1, Sphingosine 1-phosphate receptor 2. Put plainly: Binding affinity to S1PR2 (unknown origin) assessed as dissociation constant measured for 60 secs by surface plasmon resonance assay.
Settings: not given
In general terms: Surface plasmon resonance follows binding to a sensor surface in real time, without labels.
For `COc1cc(NC(=O)Nc2cc(Cl)nc(Cl)c2)cc(Cl)n1`, the “Dissociation rate constant (koff)” value is 2.19 10^-1/s.

Turning to `O=C(Nc1cc(Cl)nc(Cl)c1)Nc1cc(Cl)nc(OC2CCCC2)c1`, the “Dissociation rate constant (koff)” value is given as 1.79 10^-1/s.

With `O=C(Nc1cc(Cl)nc(Cl)c1)Nc1cc2ccccn2n1`, the “Dissociation rate constant (koff)” value is 1.16 10^-1/s.

Take `CCOc1cc(NC(=O)Nc2cc(Cl)nc(Cl)c2)cc(Cl)n1`: the “Dissociation rate constant (koff)” value is 1.02 10^-1/s.

In the case of `CC(C)Oc1cc(NC(=O)Nc2cc(Cl)nc(Cl)c2)cc(Cl)n1`, the “Dissociation rate constant (koff)” value is on record as 1.19 10^-1/s.

Take `O=C(Nc1cc(Cl)cc(Cl)c1)Nc1cc(Cl)nc(Cl)c1`: the “Dissociation rate constant (koff)” value is 1.16 10^-1/s.

As to `COc1ccc(-c2ccc3cc(NC(=O)Nc4cc(Cl)nc(Cl)c4)nn3c2)cc1`, the “Dissociation rate constant (koff)” value is on record as 1.12 10^-1/s.

Turning to `O=C(Nc1cc(Cl)nc(Cl)c1)Nc1cc2ccc(Br)cn2n1`, the Dissociation rate constant (koff) came to 0.168 s⁻¹.

Regarding `COc1c(Cl)cc(NC(=O)Nc2cc(Cl)nc(Cl)c2)cc1Cl`, the “Dissociation rate constant (koff)” value was 3.12 10^-1/s.

For the compound `O=C(Nc1cc(Cl)nc(Cl)c1)Nc1cc2ccc(-c3ccccc3)cn2n1`, the “Dissociation rate constant (koff)” value is 2.01 10^-1/s.

The target is the same in another assay. Description: Binding affinity to S1PR2 (unknown origin) assessed as association constant measured for 60 secs by surface plasmon resonance assay. The following applies: filed as antagonist, time 60.0 sec.
For the compound `COc1cc(NC(=O)Nc2cc(Cl)nc(Cl)c2)cc(Cl)n1`, the Ka was 3.21 10^5/M/s.

Turning to `O=C(Nc1cc(Cl)nc(Cl)c1)Nc1cc(Cl)nc(OC2CCCC2)c1`, the Ka was 4.49 10^5/M/s.

Take `O=C(Nc1cc(Cl)nc(Cl)c1)Nc1cc2ccccn2n1`: the Ka is 7.93 10^6/M/s.

In the case of `CCOc1cc(NC(=O)Nc2cc(Cl)nc(Cl)c2)cc(Cl)n1`, the Ka was 1.96 10^5/M/s.

For `CC(C)Oc1cc(NC(=O)Nc2cc(Cl)nc(Cl)c2)cc(Cl)n1`, the Ka was 9.14 10^5/M/s.

Consider `O=C(Nc1cc(Cl)cc(Cl)c1)Nc1cc(Cl)nc(Cl)c1`, for which the Ka was 3.26 10^4/M/s.

For the compound `COc1ccc(-c2ccc3cc(NC(=O)Nc4cc(Cl)nc(Cl)c4)nn3c2)cc1`, the Ka is 9.12 10^6/M/s.

With `O=C(Nc1cc(Cl)nc(Cl)c1)Nc1cc2ccc(Br)cn2n1`, the Ka was 8.31 10^7/M/s.

`COc1c(Cl)cc(NC(=O)Nc2cc(Cl)nc(Cl)c2)cc1Cl`: the Ka was 6.24 10^6/M/s.

On to `O=C(Nc1cc(Cl)nc(Cl)c1)Nc1cc2ccc(-c3ccccc3)cn2n1`, for which the Ka is 4.59 10^6/M/s.

The target is the same in a further assay. Description: Binding affinity to S1PR2 (unknown origin) measured by surface plasmon resonance assay. The following applies: filed as antagonist.
With `COc1cc(NC(=O)Nc2cc(Cl)nc(Cl)c2)cc(Cl)n1`, the K was 6.82 10^-7M.

Take `O=C(Nc1cc(Cl)nc(Cl)c1)Nc1cc(Cl)nc(OC2CCCC2)c1`: the K was 3.99 10^-7M.

For `O=C(Nc1cc(Cl)nc(Cl)c1)Nc1cc2ccccn2n1`, the K is 1.46 10^-8M.

Take `CCOc1cc(NC(=O)Nc2cc(Cl)nc(Cl)c2)cc(Cl)n1`: the K was 5.2 10^-7M.

Take `CC(C)Oc1cc(NC(=O)Nc2cc(Cl)nc(Cl)c2)cc(Cl)n1`: the K is 1.3 10^-7M.

For the compound `O=C(Nc1cc(Cl)cc(Cl)c1)Nc1cc(Cl)nc(Cl)c1`, the K was 3.56 10^-6M.

With `COc1ccc(-c2ccc3cc(NC(=O)Nc4cc(Cl)nc(Cl)c4)nn3c2)cc1`, the K is 1.22 10^-8M.

As to `O=C(Nc1cc(Cl)nc(Cl)c1)Nc1cc2ccc(Br)cn2n1`, the K was 2.02 10^-8M.

On to `COc1c(Cl)cc(NC(=O)Nc2cc(Cl)nc(Cl)c2)cc1Cl`, for which the K was 5 10^-8M.

With `O=C(Nc1cc(Cl)nc(Cl)c1)Nc1cc2ccc(-c3ccccc3)cn2n1`, the K is 4.38 10^-8M.

The term EC50 denotes the concentration at which the effect is half-maximal.
